Results as given in US20230040279A1, “COMPOSITIONS HAVING PESTICIDAL UTILITY AND PROCESSES RELATED THERETO” (CORTEVA AGRISCIENCE LLC, priority 2019, published 2023).

Columns and labels:
[1] = test system: Green Peach Aphid (Myzus persicae, MYZUPE); assay: Green Peach Aphid (GPA) foliar spray bioassay on cabbage seedlings; assay type: in vivo; details: for Mean LC50 PPM: cabbage seedlings, live aphids counted three days after treatment, Abbott-corrected % control; for % (percent increase in the Mean LC50 required compared to F1): relative to F1
Description: (§1) F1, CE1, CE2, CE3, and CE4 (2 mg each) were each dissolved in 2 mL of acetone/methanol (1:1) solvent, forming stock solutions of 1000 ppm for each test molecule. The stock solutions were diluted 5× with 0.025% Tween® 20 in water to obtain test solutions at 200 ppm for each test molecule. Subsequent 4× dilutions, in water containing 0.025% Tween® 20 and 10% acetone/methanol (1:1), were used to generate the desired concentrations for dose responses. A minimum of 5 concentrations of each test molecule were used for each assay.
Test solutions of Formula One and the Comparative Examples, prepared as described above, were tested against GPA using the following procedure.
Cabbage seedlings grown in 3-inch pots, with 2-3 small (3-5 cm) true leaves, were used as test substrate. The seedlings were infested with 20-50 GPA (wingless adult and nymph stages) one day prior to chemical application. Four pots with individual seedlings were used for each treatment. A hand—held aspirator—type sprayer was used for spraying a solution to both sides of […] leaves until runoff. Reference plants (solvent check) were sprayed with the diluent only (0.025% Tween® 20 and 10% acetone/methanol (1:1) in water). Treated plants were held in a holding room for three days at approximately 25° C. and ambient relative humidity (RH) prior to grading. Evaluation was conducted by counting the number of live aphids per plant under a microscope three days after treatment. Percent control was measured using Abbott's correction formula (W. S. Abbott, “A Method of Computing the Effectiveness of an Insecticide” J. Econ. Entomol. 18 (1925), pp.265-267) as follows:
(§2) Corrected % Control=100*(X−Y)/X
where X=No. of live aphids on solvent check plants and Y=No. of live aphids on treated plants. Bioassay 2: Sweetpotato Whitefly (Bemisia tabaci, BEMITA) (“SPW”).

[2] = test system: Sweetpotato Whitefly (Bemisia tabaci, BEMITA); assay: Sweetpotato Whitefly (SPW) foliar spray bioassay on cotton seedlings; assay type: in vivo; details: for Mean LC50 PPM: cotton seedlings sprayed at crawler emergence, 2-3 instar nymphs counted 7-9 days after treatment, Abbott-corrected % control; for % (percent increase in the Mean LC50 required compared to F1): relative to F1
Description: as §1
Test solutions of Formula One and the Comparative Examples, prepared as described above, were tested against SPW using the following procedure.
Cotton seedlings grown in 3-inch pots, pruned so that only one true leaf remained, were used as test substrate. Adult B. tabaci were allowed to colonize these plants and lay eggs for 24 hours after which all adults were removed from the plants using compressed air. Plants were monitored for egg development and, when crawler emergence was underway (>25% emergence based on visual examination using a microscope), the plants were sprayed using the test solutions and methods described above for green peach aphids (GPA). Treated plants were held in a holding room at approximately 25° C. and ambient relative humidity (RH) prior to grading. Evaluation was conducted by counting the number of developed 2-3 instar nymphs per plant under a microscope 7-9 days after treatment. Percent control was measured using Abbott's correction formula (W. S. Abbott, “A Method of Computing the Effectiveness of an Insecticide” J. Econ. Entomol. 18 (1925), pp.265-267) as follows:
as §2
where X=No. of live nymphs on solvent check plants and Y=No. of live nymphs on treated plants.

| SMILES | Mean LC50 PPM [1] [PPM] | % (percent increase in the Mean LC50 required compared to F1) [1] [%] | Mean LC50 PPM [2] [PPM] | % (percent increase in the Mean LC50 required compared to F1) [2] [%] |
| --- | --- | --- | --- | --- |
| CS(=O)(=O)CC(=O)Nc1cn(-c2cccnc2)nc1Cl [CE3, N-(3-chloro-1-(pyridin-3-yl)-1H-pyrazol-4-yl)-2-(methylsulfonyl)acetamide] | 0.05 | −29 | 25.35 | 421 |
| CC(C)(C(=O)Nc1cn(-c2cccnc2)nc1Cl)S(C)(=O)=O [CE4, N-(3-chloro-1-(pyridin-3-yl)-1H-pyrazol-4-yl)-2-methyl-2-(methylsulfonyl)propanamide] | 2.17 | 3000 | 9.72 | 100 |
| CC(C(=O)N(C)c1cn(-c2cccnc2)nc1Cl)S(C)(=O)=O (stereo not drawn) [CE1, N-(3-chloro-1-(pyridin-3-yl)-1H-pyrazol-4-yl)-N-methyl-2-(methylsulfonyl)propanamide] | 0.29 | 314 | 5.61 | 15 |
| CN(C(=O)CS(C)(=O)=O)c1cn(-c2cccnc2)nc1Cl [CE2, N-(3-chloro-1-(pyridin-3-yl)-1H-pyrazol-4-yl)-N-methyl-2-(methylsulfonyl)acetamide] | 0.52 | 643 | 21.01 | 331 |
| CC(C(=O)Nc1cn(-c2cccnc2)nc1Cl)S(C)(=O)=O (stereo not drawn) [Molecule F1, N-(3-chloro-1-(pyridin-3-yl)-1H-pyrazol-4-yl)-2-(methylsulfonyl)propanamide] | 0.07 | – | 4.87 | – |
